≈ marks a conversion by molar mass, not a printed value. Calls of active or inactive are those of the source. The calls are words filed in the database; no cut-off is given here.
How the values were obtained:
B16-F10 [1] = test: Antitumor immunity against mouse B16-F10 cells assessed as surface translocation of CRT at 250 nM incubated for 16 hrs followed by irradiated with 54 J/cm^2 light dose and further incubated for 6 hrs by Alexa Fluor 488/Hoechst 33342 staining based confocal laser scanning microscopy; assay type: functional, cell-based
[2] = Biodistribution in heart of C57BL/6 mouse harboring mouse B16-F10 cells at 2 mg/kg, iv measured after 12 hrs by flourescence imaging assay; assay type: ADME, organism-based; settings: in vivo
B16-F10 [3] = test: Induction of apoptosis in mouse B16-F10 cells assessed as viable cells at 50 nM incubated for 16 hrs followed by irradiated with 54 J/cm^2 of light dose by Annexin V-FITC/PI based flow cytometric analysis (reference value: 87.45 %); assay type: functional; settings: B16-F10, light or radiation study, read-out: Activity
A-375 [4] = test: Induction of ROS generation in human A-375 cells assessed as cells with high intracellular ROS levels at 10 nM incubated for 16 hrs followed by irradiated with 54 J/cm2 light dose by H2DCFDA fluorescent probe based flow cytometry method (reference value: 2.09 %); assay type: functional
B16-F10 [5] = test: Induction of apoptosis in mouse B16-F10 cells assessed as necrotic cells at 50 nM incubated for 16 hrs followed by irradiated with 54 J/cm^2 light dose by Annexin V-FITC/PI based flow cytometric analysis (reference value: 3.75 %); assay type: functional
[6] = Drug localisation in lysosome of human A-375 cells at 5 uM incubated for 16 hrs by Lyso Tracker Green based confocal laser scanning microscopy analysis; assay type: ADME, subcellular; settings: a-375, 16 h
[7] = Drug localisation in mitochondria of human A-375 cells at 5 uM incubated for 16 hrs by Mito Tracker Green FM based confocal laser scanning microscopy analysis; assay type: ADME; settings: a-375, 16 h
B16-F10 [8] = test: Induction of apoptosis in mouse B16-F10 cells assessed as early apoptotic cells at 50 nM incubated for 16 hrs followed by irradiated with 54 J/cm^2 light dose by Annexin V-FITC/PI based flow cytometric analysis (reference value: 6.48 %); assay type: functional
B16-F10 [9] = test: Induction of apoptosis in mouse B16-F10 cells assessed as late apoptotic cells at 10 nM incubated for 16 hrs followed by irradiated with 54 J/cm^2 light dose by Annexin V-FITC/PI based flow cytometric analysis (reference value: 2.32 %); assay type: functional
A-375 [10] = test: Induction of ROS generation in human A-375 cells assessed as cells with high intracellular ROS levels at 100 nM incubated for 16 hrs followed by irradiated with 54 J/cm2 light dose by H2DCFDA fluorescent probe based flow cytometry method (reference value: 2.09 %); assay type: functional
[11] = Biodistribution in kidneys of C57BL/6 mouse harboring mouse B16-F10 cells at 2 mg/kg, iv measured after 12 hrs by flourescence imaging assay; assay type: ADME, organism-based, Kidney; settings: in vivo
[12] = Drug localisation in endoplasmic reticulum of human A-375 cells at 5 uM incubated for 16 hrs by ER Tracker Green based confocal laser scanning microscopy analysis; assay type: ADME, subcellular; settings: a-375, 16 h
[13] = Phototoxicity against human HeLa cells assessed as reduction in cell viability incubated for 16 hrs followed by irradiated with 54 J/cm^2 of light dose and further incubated for 24 hrs by CCK-8 assay; assay type: toxicity, cell-based; settings: light or radiation study
B16-F10 [14] = test: Antitumor immunity against mouse B16-F10 cells assessed as release of HMGB1 at 250 nM incubated for 16 hrs followed by irradiated with 54 J/cm^2 light dose and further incubated for 6 hrs by Alexa Fluor 488/Hoechst 33342 staining based confocal laser scanning microscopy; assay type: functional, cell-based
B16-F10 [15] = test: Photodynamic therapy in mouse B16-F10 cells implanted in C57BL/6 mouse model assessed as increase in infiltration of CD8+ T cells by APC/FITC/PE staining based flow cytometric analysis (reference value: 3.68 %); assay type: functional
B16-F10 [16] = test: Induction of apoptosis in mouse B16-F10 cells assessed as viable cells at 250 nM incubated for 16 hrs followed by irradiated with 54 J/cm^2 of light dose by Annexin V-FITC/PI based flow cytometric analysis (reference value: 87.45 %); assay type: functional; settings: B16-F10, light or radiation study, read-out: Activity
A-375 [17] = test: Induction of apoptosis in human A-375 cells assessed as total apoptotic cells at 50 nM incubated for 16 hrs followed by irradiated with 54 J/cm^2 light dose by Annexin V-FITC/PI based flow cytometric analysis (reference value: 4.79 %); assay type: functional
[18] = Phototoxicity against human A-375 cells assessed as reduction in cell viability incubated for 16 hrs followed by irradiated with 54 J/cm^2 of light dose and further incubated for 24 hrs by CCK-8 assay; assay type: toxicity, cell-based; settings: A-375, light or radiation study
[19] = Drug localisation in endoplasmic reticulum of mouse B16-F10 cells at 5 uM incubated for 16 hrs by ER Tracker Green based confocal laser scanning microscopy analysis; assay type: ADME, subcellular; settings: b16-f10, 16 h
HeLa = test: Dark toxicity against human HeLa cells assessed as reduction in cell viability incubated for 16 hrs by CCK-8 assay; assay type: functional, cell-based
A-375 [20] = test: Induction of apoptosis in human A-375 cells assessed as total apoptotic cells at 250 nM incubated for 16 hrs followed by irradiated with 54 J/cm^2 light dose by Annexin V-FITC/PI based flow cytometric analysis (reference value: 4.79 %); assay type: functional
[21] = Aqueous solubility in PBS; assay type: physicochemical; settings: buffer
B16-F10 [22] = test: Induction of apoptosis in mouse B16-F10 cells assessed as viable cells at 10 nM incubated for 16 hrs followed by irradiated with 54 J/cm^2 of light dose by Annexin V-FITC/PI based flow cytometric analysis (reference value: 87.45 %); assay type: functional; settings: B16-F10, light or radiation study, read-out: Activity
[23] = Lipophilicity, logP of compound; assay type: physicochemical; settings: octanol/water
B16-F10 [24] = test: Photodynamic therapy in mouse B16-F10 cells implanted in C57BL/6 mouse model assessed as increase infiltration of CD4+ T cells measured after 3 days by immunofluorescence staining based analysis; assay type: functional, cell-based; settings: time 3.0 day
B16-F10 [25] = test: Dark toxicity against mouse B16-F10 cells assessed as reduction in cell viability incubated for 16 hrs by CCK-8 assay; assay type: cell-based; settings: B16-F10, 16 h
B16-F10 [26] = test: Biodistribution in tumor of C57BL/6 mouse harboring mouse B16-F10 cells at 2 mg/kg, iv measured after 12 hrs by flourescence imaging assay; assay type: ADME, organism-based; settings: in vivo

Drug uptake [2]: Active
Drug uptake [6]: Active
Drug uptake [7]: Active
Drug uptake [11]: Active
Drug uptake [12]: Active
Drug uptake [19]: Active
solubility [21]: 165 µM (≈ 144 µg/mL)
logP [23]: -0.77
Drug uptake (B16-F10 [26]): Active
SMILES: COc1ccc(C2=[N+]3C(=Nc4c(-c5ccccc5)c5c(n4[B-]3(F)F)-c3ccc(OCC(=O)N[C@@H](CC(=O)O)C(=O)O)cc3CC5)C(c3ccccc3)=C2I)cc1
Activity (B16-F10 [1]): inactive
viability at 0.05 µM (B16-F10 [3]): 41.9%
Activity (A-375 [4]): 2.48%
Activity (B16-F10 [5]): 3.51%
Activity (B16-F10 [8]): 40.92%
Activity (B16-F10 [9]): 7.3%
Activity (A-375 [10]): 53.15%
IC50 [13]: 21 nM
Activity (B16-F10 [14]): inactive
Activity (B16-F10 [15]): 7.98%
viability at 0.25 µM (B16-F10 [16]): 3.76%
Activity (A-375 [17]): 66.46%
IC50 [18]: 81 nM
IC50 (HeLa): > 250 µM
Activity (A-375 [20]): 93.81%
viability at 0.01 µM (B16-F10 [22]): 88.9%
Activity (B16-F10 [24]): Active
IC50 (B16-F10 [25]): > 250 µM

— ChEMBL document CHEMBL5038667, “Discovery of an Amino Acid-Modified Near-Infrared Aza-BODIPY Photosensitizer as an Immune Initiator for Potent Photodynamic Therapy in Melanoma” (J Med Chem, 2022)
